In ChEMBL document CHEMBL1201862, “PubChem BioAssay data set” (2004):
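Cultured in 96-well plates, cells were exposed to test compound for 48 hours across five concentrations. Abbreviation: GI50, concentration required for 50% inhibition of growth.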 The source made the active and inactive calls. Cut-off read from the data, not from the text of the source: active = GI50 up to about 1.1 µM and inactive = higher.

Experiments:
Assay in all cases: inhibition of tumour cell growth, NCI panel, 48 h
[1] = tested on: CCRF-CEM
[2] = tested on: HCT-15
[3] = tested on: HL-60
[4] = tested on: HOP-92
[5] = tested on: Hs-578T
[6] = tested on: LOX IMVI
[7] = tested on: MDA-MB-231
[8] = tested on: NCI-H226
[9] = tested on: NCI/ADR-RES
[10] = tested on: OVCAR-5
[11] = tested on: OVCAR-8
[12] = tested on: RXF 393
[13] = tested on: SK-MEL-2
[14] = tested on: SK-MEL-5
[15] = tested on: SNB-19
[16] = tested on: SR
[17] = tested on: T47D
[18] = tested on: U-251
[19] = tested on: UACC-62
[20] = tested on: UO-31

Row | SMILES | GI50 [1] | GI50 [2] [µM] | GI50 [3] | GI50 [4] | GI50 [5] | GI50 [6] | GI50 [7] | GI50 [8] | GI50 [9] | GI50 [10] | GI50 [11] | GI50 [12] | GI50 [13] | GI50 [14] | GI50 [15] | GI50 [16] | GI50 [17] | GI50 [18] | GI50 [19] | GI50 [20]
1 | CS(=O)(=O)N1CC(CCl)c2ccc(NO)cc21 (stereo not drawn) | 1.83 µM (inactive) | 14.2 | 1.96 µM (inactive) | 14.4 µM (inactive) | 23.1 µM (inactive) | 13.3 µM (inactive) | 15.6 µM (inactive) | 30 µM (inactive) | 4.66 µM (inactive) | 15.1 µM (inactive) | 12.9 µM (inactive) | 3.37 µM (inactive) | 17.7 µM (inactive) | 12.3 µM (inactive) | 22.5 µM (inactive) | 2.3 µM (inactive) | 21.9 µM (inactive) | 11.4 µM (inactive) | 13.6 µM (inactive) | 10.3 µM (inactive)
2 | C=C(c1ccccc1)c1ccccc1-c1cc(-c2ccccc2)cc(-c2ccccc2)n1 | 84.9 µM (inactive) | > 100 | 34.5 µM (inactive) | > 100 µM (inactive) | > 100 µM (inactive) | > 100 µM (inactive) | > 100 µM (inactive) | > 100 µM (inactive) | > 100 µM (inactive) | > 100 µM (inactive) | > 100 µM (inactive) | > 100 µM (inactive) |  | 78.3 µM (inactive) | > 100 µM (inactive) | > 100 µM (inactive) | 9.08 µM (inactive) | > 100 µM (inactive) | 74.6 µM (inactive) | > 100 µM (inactive)
3 | Cc1cnc2c(c1)C(=O)C1=C(C2=O)C2OC(=O)CC2OC1(C)C (stereo not drawn) | 0.0239 µM (active) | 0.0643 | 0.0148 µM (active) | 0.121 µM (active) | 0.301 µM (active) | 0.193 µM (active) | 0.0764 µM (active) | 0.979 µM (active) | 0.625 µM (active) | 0.301 µM (active) | 0.29 µM (active) | 0.205 µM (active) | 0.964 µM (active) | 0.317 µM (active) | 1.16 µM (inactive) | 0.0389 µM (active) | 0.304 µM (active) | 0.109 µM (active) | 0.179 µM (active) | 0.458 µM (active)
4 | CC(C)=CC1C(COC(=O)c2ccccc2Cl)C1(C)C (stereo not drawn) | 56.8 µM (inactive) | 25.6 | 24.1 µM (inactive) | 28.4 µM (inactive) | 19 µM (inactive) | 20.2 µM (inactive) | 49.7 µM (inactive) | 30.4 µM (inactive) | 41.2 µM (inactive) | 38.3 µM (inactive) | 53.1 µM (inactive) | 24.9 µM (inactive) | 46.7 µM (inactive) | 24 µM (inactive) | > 100 µM (inactive) | 42.2 µM (inactive) | 50.6 µM (inactive) | 30.1 µM (inactive) | > 100 µM (inactive) | 78.5 µM (inactive)
5 | C=C1C(=O)O[C@H]2[C@@H](O)[C@H](C)CCC/C(C)=C/CC[C@@]3(C)O[C@@H]3C[C@@H]12 | 1.07 µM (active) | 1.92 | 2.47 µM (inactive) | 2.59 µM (inactive) | 14.7 µM (inactive) | 4.43 µM (inactive) | 12.9 µM (inactive) | 1.53 µM (inactive) | 6.43 µM (inactive) | 15.7 µM (inactive) | 4.38 µM (inactive) | 2.85 µM (inactive) | 18.1 µM (inactive) | 11.8 µM (inactive) | 16.7 µM (inactive) | 1.88 µM (inactive) | 3.4 µM (inactive) | 8.73 µM (inactive) | 9.79 µM (inactive) | 5.47 µM (inactive)
6 | CC12CCC(=O)C=C1CCC1C2CCC2(C)C(C(=O)Cn3cnc4c(=S)nc[nH]c43)CCC12 (stereo not drawn) | 25.5 µM (inactive) | 58.6 | 33.3 µM (inactive) | 10 µM (inactive) | 52 µM (inactive) | 24.3 µM (inactive) | 38.9 µM (inactive) | 41.5 µM (inactive) | 62.4 µM (inactive) | > 100 µM (inactive) | 27.5 µM (inactive) | 17.6 µM (inactive) | 41.9 µM (inactive) | 30.6 µM (inactive) | 23.6 µM (inactive) | 27.4 µM (inactive) | 9.23 µM (inactive) | 30.1 µM (inactive) | 23.8 µM (inactive) | 44.8 µM (inactive)
7 | O=C(NCCc1ccccc1)c1cc(/C=C/c2cc(O)ccc2O)ccc1O | 2.11 µM (inactive) | 2.71 | 2.12 µM (inactive) | 1.87 µM (inactive) | 5.2 µM (inactive) | 4.17 µM (inactive) | 4.36 µM (inactive) | 9.66 µM (inactive) | 3.43 µM (inactive) | 8.69 µM (inactive) | 3.85 µM (inactive) | 1.93 µM (inactive) | 3.57 µM (inactive) | 2.74 µM (inactive) | 6.71 µM (inactive) | 3.01 µM (inactive) | 1.92 µM (inactive) | 2.36 µM (inactive) | 2.03 µM (inactive) | 1.7 µM (inactive)
8 | Cc1cc2nc3[nH]c4c(Cl)cc(Cl)cc4c3nc2cc1C | 72.3 µM (inactive) | > 100 | > 100 µM (inactive) | > 100 µM (inactive) | > 100 µM (inactive) | > 100 µM (inactive) | > 100 µM (inactive) | > 100 µM (inactive) | > 100 µM (inactive) | > 100 µM (inactive) | > 100 µM (inactive) | 31.6 µM (inactive) | > 100 µM (inactive) | > 100 µM (inactive) | > 100 µM (inactive) | 96.8 µM (inactive) | > 100 µM (inactive) | > 100 µM (inactive) | 84.7 µM (inactive) | > 100 µM (inactive)
9 | CN(Cc1ccccc1)C(=S)S [SODIUM BENZYL(METHYL)CARBAMODITHIOATE] | 16.5 µM (inactive) | 34 | 26.4 µM (inactive) | 68.2 µM (inactive) | 78.7 µM (inactive) | 27.9 µM (inactive) | 88.5 µM (inactive) | 98.6 µM (inactive) | 38.1 µM (inactive) | 35.9 µM (inactive) | 33 µM (inactive) | 54.5 µM (inactive) | 55.7 µM (inactive) | 48.3 µM (inactive) |  | 20.6 µM (inactive) | 78.7 µM (inactive) | 38 µM (inactive) | 40.8 µM (inactive) | 27.2 µM (inactive)
10 | CN(C)C(=S)/N=c1\ssc(=S)n1Cc1cccs1 | 6.46 µM (inactive) | 2.84 | 2.44 µM (inactive) | 5.26 µM (inactive) | 1.51 µM (inactive) | 4.06 µM (inactive) | 4.42 µM (inactive) | 13.7 µM (inactive) | 1.08 µM (active) | > 55.3 µM (inactive) | 4.99 µM (inactive) | 2.19 µM (inactive) | 2.88 µM (inactive) | 1.04 µM (active) | 6.05 µM (inactive) | 4.88 µM (inactive) | 8.51 µM (inactive) | 3.76 µM (inactive) | 2.7 µM (inactive) | 6.28 µM (inactive)
11 | CC1(C)OCC(C2OC(=O)C(OCc3ccccc3)=C2OCc2ccccc2)O1 (stereo not drawn) | 37.8 µM (inactive) | 30.9 | 22.9 µM (inactive) | 23 µM (inactive) | 70.6 µM (inactive) | 31.2 µM (inactive) | 24.6 µM (inactive) | 32.7 µM (inactive) | 35.2 µM (inactive) | 60.1 µM (inactive) | 50.4 µM (inactive) | 49.1 µM (inactive) | 23.1 µM (inactive) | 17.2 µM (inactive) | 55.3 µM (inactive) | 28.4 µM (inactive) | 28.8 µM (inactive) | 39.2 µM (inactive) | 22.4 µM (inactive) | 37.1 µM (inactive)
12 | CCCCOCCOC1=C(Cl)C(=O)c2c(O)ccc(O)c2C1=O | 0.0274 µM (active) | 0.151 | 0.0347 µM (active) | 0.288 µM (active) | 2.49 µM (inactive) | 0.439 µM (active) | 0.493 µM (active) | 2.26 µM (inactive) | 0.614 µM (active) | 1.37 µM (inactive) | 0.347 µM (active) | 0.227 µM (active) | 1.37 µM (inactive) | 0.733 µM (active) | 1.36 µM (inactive) | 0.0995 µM (active) | 0.532 µM (active) | 1.32 µM (inactive) | 1.12 µM (active) | 0.748 µM (active)
13 | C=CCC1(O)c2cccc(O)c2C(=O)c2c(O)cccc21 |  | 17.7 | 20.5 µM (inactive) | 28.1 µM (inactive) | 24.4 µM (inactive) | 20.9 µM (inactive) | 33.5 µM (inactive) | 45.7 µM (inactive) | 18.9 µM (inactive) | 35.2 µM (inactive) | 32.2 µM (inactive) | 15.9 µM (inactive) | 17.3 µM (inactive) | 29.4 µM (inactive) |  | 10.9 µM (inactive) | 23.3 µM (inactive) | 23.6 µM (inactive) |  | 27.8 µM (inactive)
14 | CC1(C)COC(c2cccc(C(O)c3ccc(Cl)cc3)c2)=N1 (stereo not drawn) | 19 µM (inactive) |  | 41 µM (inactive) | 24.9 µM (inactive) | 23.4 µM (inactive) | 15 µM (inactive) | 29.9 µM (inactive) | 14.8 µM (inactive) | 33.3 µM (inactive) | 17.9 µM (inactive) | 16.1 µM (inactive) | 15 µM (inactive) | 24.2 µM (inactive) | 14.4 µM (inactive) | 32.6 µM (inactive) | 31.3 µM (inactive) | 36.3 µM (inactive) | 22.6 µM (inactive) | 19 µM (inactive) | 17.1 µM (inactive)
15 | COc1cccc(/N=C/c2cc(OC)c(OC)c(OC)c2)c1 | > 100 µM (inactive) | 56.1 | > 100 µM (inactive) | > 100 µM (inactive) | > 100 µM (inactive) | > 37.2 µM (inactive) | > 100 µM (inactive) | > 54.8 µM (inactive) | > 100 µM (inactive) | > 53.2 µM (inactive) | > 100 µM (inactive) | 78.7 µM (inactive) | > 85.1 µM (inactive) | 16.8 µM (inactive) |  | > 23.1 µM (inactive) | 64.3 µM (inactive) | > 100 µM (inactive) | 1.75 µM (inactive) | > 23 µM (inactive)
